The values below come from paper PMC9862111, “Isolation of the Lanostane Triterpenes Pholiols L–S from Pholiota populnea and Evaluation of Their Antiproliferative and Cytotoxic Activities” (Pharmaceuticals, 2023).

The test system of series [1] is Colo 205. Kind of series: Antiproliferative MTT assay, 72 h. The class given is cell-based, human. As to conditions: for IC50: MTT, 72 h, 6 × 10^3 cells/well, sensitive colon adenocarcinoma; for Selectivity index (SI), Colo 205: antiproliferative assay, Colo 205 versus non-cancerous MRC-5. Here is the method: (§1) Antiproliferative Assays: The antiproliferative effect of the compounds was tested in decreasing serial dilutions of compounds (starting with 100 µM, then two-fold serial dilution) on human cell lines (Colo 205, Colo 320, MCF-7, A549, and MRC-5) in 96-well flat-bottomed microtiter plates. Firstly, the compounds were diluted in 100 µL of the medium, and then, 6 × 10^3 cells (Colo 205, Colo 320) in 100 µL of RPMI medium were added to each well, excluding the medium control wells. The adherent MCF-7, A549, and MRC-5 cells (6 × 10^3 cells/well) were seeded in EMEM medium for at least 4 h before the assay. The two-fold serial dilutions of the compounds were made in a separate plate (100–0.19 μM) and then transferred to the plates containing the adherent-corresponding cell line. […] The percentage of inhibition of cell growth was determined according to Equation (1), and expressed as IC50 values, defined as the concentration that induces 50% growth inhibition. IC50 values and the standard deviation (SD) of triplicate experiments were calculated using GraphPad Prism 5 software for Windows. Doxorubicin (2 mg/mL, Teva Pharmaceuticals, Budapest, Hungary) was used as a positive control and the vehicle DMSO as the negative control (Table 3). (1) […][ODsample−ODmedium control/ODcell control−ODmedium control]×100
(In general: Tetrazolium assays rely on reduction of a dye to a coloured formazan, in cell work by metabolically active cells.)

The subject of series [2] is MCF-7. Nature of the series: Antiproliferative MTT assay, 72 h. The class given is cell-based, human. As to conditions: for IC50: Homo sapiens, MCF7, MTT, 72 h, 6 × 10^3 cells/well, breast cancer; for Selectivity index (SI), MCF-7: antiproliferative assay, MCF-7 versus non-cancerous MRC-5. Here is the method:
as §1

Series [3] concerns A549. Nature of the series: Cytotoxic MTT assay, 24 h. To be noted: Homo sapiens, A549, 24 h, read-out: Cytotoxic activity IC50 A549 Mean.
Protocol: (§2) Cell Line Cultures: The human colon adenocarcinoma cell lines, Colo 205 (ATCC-CCL-222) doxorubicin-sensitive parent and Colo320/MDR-LRP (ATCC-CCL-220.1) doxorubicin resistant expressing ABCB1, were purchased from LGC Promochem (Teddington, UK). The cells were cultured in RPMI-1640 medium supplemented with 10% heat-inactivated fetal bovine serum (FBS), 2 mM L-glutamine, 1 mM Na-pyruvate, 100 mM HEPES. The MRC-5 (ATCC CCL-171) human embryonic lung fibroblast cell line and the hormone-responsive breast cancer cell line MCF-7 (ATCC HTB-22) were purchased from Sigma-Aldrich (Merck KGaA, Darmstadt, Germany). The MCF-7 and MRC-5 cells were cultured in Eagle’s Minimal Essential Medium (EMEM) containing 4.5 g/L of glucose and supplemented with a non-essential amino acid mixture, a selection of vitamins, and 10% FBS. The cell lines were incubated at 37 °C, 5% CO2, and 95% air atmosphere. The cells were detached with Trypsin-Versene (EDTA) solution for 5 min at 37 °C. The human non-small cell lung cancer cell line A549 was kindly provided by Brigitte Marian (Institute of Cancer Research, Department of Medicine I, Medical University of Vienna, Austria). A549 cells were grown in Eagle’s Minimal Essential Medium (EMEM) supplemented with 10% heat-inactivated fetal bovine serum.
(§3) Assay for Cytotoxic Effect: The effects of increasing concentrations of the compounds on cell growth were tested in 96-well flat-bottomed microtiter plates, as described for the antiproliferative assay, using 1 × 10^4 cells/well. The culture plates were incubated at 37 °C for 24 h; at the end of the incubation period, 20 μL of MTT solution (from a 5 mg/mL stock solution) was added to each well. After incubation at 37 °C for 4 h, 100 μL of sodium dodecyl sulfate (SDS) solution (10% SDS in 0.01 M HCl) was added to each well, and the plates were further incubated at 37 °C overnight. Cell growth was determined by measuring the optical density (OD) at 540 nm (ref 630 nm) with a Multiscan EX ELISA reader (Thermo Labsystems, Cheshire, WA, USA).
(§4) Sample preparation: The compounds were dissolved in DMSO to achieve the final concentration of 5 mM. The starting concentration of the compounds was 100 µM and 2-fold serial dilutions were prepared for the antiproliferative and cytotoxic assays. The following concentrations were used: 100-50-25-12.5-6.25-3.125-1.56-0.78-0.39-0.195 µM.
Series [4] concerns MCF-7. Kind of series: Cytotoxic MTT assay, 24 h. To be noted: Homo sapiens, MCF7, 24 h, read-out: Cytotoxic activity IC50 MCF-7 Mean.
Protocol: as §2, §3, §4
For series [5], the system named is Colo 320. Kind of series: Cytotoxic MTT assay, 24 h. As to conditions: for IC50: Homo sapiens, COLO 320, 24 h, read-out: Cytotoxic activity IC50 Colo 320 (B) Mean; for RR (relative resistance ratio) (B/A): IC50 resistant (Colo 320)/IC50 sensitive (Colo 205), cytotoxic assay.
Protocol: as §2, §3, §4
Series [6] relates to Colo 205. Kind of series: Cytotoxic MTT assay, 24 h. As to conditions: Homo sapiens, COLO 205, 24 h, read-out: Cytotoxic activity IC50 Colo 205 (A) Mean.
Protocol: as §2, §3, §4
A short description of another series: in vitro. As to conditions: human.
In series [7] the test system is Colo 320. Nature of the series: Antiproliferative MTT assay, 72 h. The class given is cell-based. To be noted: Homo sapiens, 6 × 10^3 cells/well, resistant colon adenocarcinoma. Here is the method:
as §1

The test system of a further series is MRC-5. Kind of series: Antiproliferative MTT assay, 72 h. In kind it is cell-based. As to conditions: Homo sapiens, MRC5, 6 × 10^3 cells/well, normal embryonic lung fibroblast. As to the method:
as §1

Series [8] concerns A549. Kind of series: Antiproliferative MTT assay, 72 h. In kind it is cell-based. As to conditions: Homo sapiens, 6 × 10^3 cells/well, non-small cell lung cancer. As to the method: as §1
The subject of the next series is treated cancer cells. Nature of the series: Antiproliferative MTT assay, summary over cancer cell lines. In kind it is cell-based, human. To be noted: versus MRC-5. Here is the method:
as §1

The subject of series [9] is MCF-7.
Protocol: as §2, §3, §4
A short description of series [10]: Cytotoxic MTT assay, 24 h. As to conditions: human, MRC-5 embryonic lung fibroblast cells.
Protocol: as §2, §3, §4
Series [11] has as its system resistant colon adenocarcinoma cells (Colo 320). The arrangement: method as in PMID 35293752. To be noted: read-out: Cytotoxic activity IC50 Colo 320; cited from earlier work.
In series [12] the test system is sensitive (Colo 205) colon adenocarcinoma cells. The arrangement: method as in PMID 35293752. As to conditions: read-out: Cytotoxic activity IC50 Colo 205; cited from earlier work.
In series [13] the test system is p-glycoprotein (ABCB1) efflux pump. The arrangement: method as in PMID 35293752. To be noted: resistant Colo 320 cells; cited from earlier work.
A further series has as its system Colo 320 cells. The arrangement: method as in PMID 35293752. As to conditions: checkerboard method; cited from earlier work.
In the next series the test system is 5-LOX. The arrangement: method as in PMID 36279964. As to conditions: read-out: IC50 against 5-LOX; cited from earlier work.
The next series relates to COX-2. The arrangement: method as in PMID 36279964. As to conditions: read-out: IC50 against COX-2; cited from earlier work.

Protocol for in vitro: as §2, §3, §4

Broadly, the IC50 is the concentration at which inhibition is half-maximal. On to `COC(=O)CC(C)(O)CC(=O)OC1C(O)CC2(C)C3=C(C(=O)CC2C1(C)C)C1(C)CCC(C(C)CCC(=O)C(C)(C)O)C1(C)CC3` (stereo not drawn) [Compound 1, pholiol L], for which the IC50 stood at 32.4 µM in the series on Colo 205 [1] (Homo sapiens, COLO 205, 72 h); 21.7 µM in the series with MCF-7 [2]; 93.6 µM in the series on A549 [3]; 43.7 µM in the series on MCF-7 [4]; 33.9 µM with Colo 320 [5]; 40.3 µM in the series with Colo 205 [6]. Moreover, the values for the IC50 in the series on Colo 320 [7], with MRC-5 and in the series with A549 [8] were 28.1 µM, 70.9 µM and 53.7 µM, respectively. Also, the “RR (relative resistance ratio) (B/A)” value in the series on Colo 320 [5] worked out at 0.84. The compound further gave an IC50 at 24 h in the series “in vitro” of 66.1 µM. Further, the “Selectivity to cancerous cell lines over normal cells” value (shortened to “Selectivity to cancerous cell lines”) with treated cancer cells is listed as “did not display selectivity”.

Turning to `COC(=O)CC(C)(O)CC(=O)OC1CC2(C)C3=C(C(=O)CC2C(C)(C)C1OC(C)=O)C1(C)CCC(C(C)CCC(=O)C(C)(C)O)C1(C)CC3O` (stereo not drawn) [Compound 2, pholiol M], the IC50 with Colo 205 [1] (Homo sapiens, COLO 205, 72 h) is 23.9 µM; in the series with MCF-7 [2], 2.48 µM; with A549 [3], 58.1 µM; in the series on MCF-7 [4] it was above 100 µM; in the series with Colo 320 [5], 67.2 µM; in the series with Colo 205 [6], 35.9 µM. The IC50 with Colo 320 [7] is 32.5 µM; in the series with MRC-5, above 100 µM; in the series on A549 [8], above 100 µM. The “Selectivity index (SI), Colo 205” value in the series on Colo 205 [1] is given as above 4.18. In addition, the “Selectivity index (SI), MCF-7” value in the series on MCF-7 [2] is above 40. Further, in the series with MCF-7 [9], the “Cytotoxic activity IC50 MCF-7 Mean” value is recorded as “did not show a cytotoxic effect”. Also, in the series on Colo 320 [5], the “RR (relative resistance ratio) (B/A)” value amounted to 1.87. This compound registered an IC50 at 24 h in the series “in vitro” above 100 µM.

In the case of `COC(=O)C[C@@](C)(O)CC(=O)O[C@@H]1C[C@]2(C)C3=C(C(=O)C[C@H]2C(C)(C)[C@H]1OC(C)=O)[C@]1(C)CC[C@H]([C@H](C)CCC(=O)C(C)(C)O)[C@@]1(C)CC3=O` [Compound 4, pholiol O], the IC50 is 23.3 µM in the series on Colo 205 [1] (Homo sapiens, COLO 205, 72 h); 23.4 µM in the series with Colo 205 [1]; 9.95 µM with MCF-7 [2]; 56.9 µM with A549 [3]; above 100 µM with MCF-7 [4]; 91.5 µM in the series on Colo 320 [5]. The IC50 in the series on Colo 205 [6] worked out at 31.5 µM; in the series on Colo 320 [7], 42.1 µM; in the series with MRC-5, 42.9 µM; in the series on A549 [8], 51.5 µM. In the series on Colo 205 [1], the “Selectivity index (SI), Colo 205” value is 1.8. In the series on MCF-7 [2], the “Selectivity index (SI), MCF-7” value is on record as 4.3. For the same compound, the “Cytotoxic activity IC50 MCF-7 Mean” value in the series on MCF-7 [9] is recorded as “did not show a cytotoxic effect”. The “RR (relative resistance ratio) (B/A)” value in the series on Colo 320 [5] is reported as 2.90. Moreover, the IC50 at 24 h in “in vitro” was found to be 58 µM.

Turning to `CC(=O)O[C@H]1[C@H](OC(=O)C[C@](C)(O)CC(=O)O)C[C@]2(C)C3=CC[C@]4(C)[C@@H]([C@H](C)CCC(=O)C(C)(C)O)CC[C@@]4(C)C3=CC[C@H]2C1(C)C` [Compound 6, pholiol Q], the IC50 in the series with Colo 205 [1] (Homo sapiens, COLO 205, 72 h) was found to be 50 µM; with MCF-7 [2], 46.3 µM; in the series with A549 [3], 85.9 µM; in the series with MCF-7 [4], 43.8 µM; in the series with Colo 320 [5], 34.7 µM; with Colo 205 [6], 56.1 µM. In addition, the IC50 was 69.2 µM with Colo 320 [7], above 100 µM in the series with MRC-5 and 51.2 µM with A549 [8]. In the series with Colo 320 [5], the “RR (relative resistance ratio) (B/A)” value was determined as 0.62. In “in vitro”, the half-maximal inhibitory concentration (IC50) at 24 h was above 100 µM. In addition, the “Selectivity to cancerous cell lines” value with treated cancer cells is reported as “did not display selectivity”.

Consider `COC(=O)C[C@@](C)(O)CC(=O)O[C@@H]1C[C@]2(C)C3=C(C(=O)C[C@H]2C(C)(C)[C@H]1OC(C)=O)[C@]1(C)CC[C@H]([C@H](C)CCC(=O)O)[C@@]1(C)CC3` [Compound 8, pholiol S], for which the IC50 in the series on Colo 205 [1] (Homo sapiens, COLO 205, 72 h) was 59.9 µM; in the series with MCF-7 [2], 35.3 µM; in the series on A549 [3], 83.7 µM; in the series on MCF-7 [4], 43 µM; in the series with Colo 320 [5], 57.5 µM; in the series on Colo 205 [6], 57.5 µM. Moreover, the IC50 is 68.5 µM in the series with Colo 320 [7], above 100 µM in the series on MRC-5 and 89.8 µM in the series on A549 [8]. The “RR (relative resistance ratio) (B/A)” value with Colo 320 [5] came out at 1.0. The IC50 at 24 h in the series “in vitro” worked out at 55.3 µM. Also, in the series with treated cancer cells, the “Selectivity to cancerous cell lines” value was “did not display selectivity”.

`COc1cccc2c1C(=O)c1c(O)c3c(c(O)c1C2=O)C[C@@](O)(C(=O)CO)C[C@@H]3O[C@H]1C[C@H](N)[C@H](O)[C@H](C)O1` [Dox, doxorubicin, reference compound]: the IC50 in the series on Colo 205 [1] (Homo sapiens, COLO 205, 72 h) is 0.0617 µM; in the series on MCF-7 [2] it was 0.155 µM; with A549 [3], 10.2 µM; with MCF-7 [4], 5.73 µM; with Colo 320 [5], 12 µM; with Colo 205 [6], 3.32 µM. The IC50 is 0.25 µM with Colo 320 [7], 0.52 µM with MRC-5 and 1.04 µM in the series on A549 [8]. Besides, the IC50 at 24 h in series [10] amounted to 3.6 µM. Also, the “RR (relative resistance ratio) (B/A)” value in the series on Colo 320 [5] was 3.60.

As to `CC(C)[C@@H](C)/C=C/[C@@H](C)[C@H]1CC[C@H]2C3=CC=C4C[C@@H](O)CC[C@]4(C)[C@H]3CC[C@]12C` [Ergosterol], the IC50 in [11] is 6.5 µM; in series [12], 4.9 µM.

`COC(=O)C[C@@](C)(O)CC(=O)O[C@@H]1C[C@]2(C)C3=C(C(=O)C[C@H]2C(C)(C)[C@H]1OC(C)=O)[C@]1(C)CC[C@H]([C@H](C)CCC(=O)C(C)(C)O)[C@@]1(C)CC3` [pholiol B]: in [13], the “p-glycoprotein (ABCB1) efflux pump inhibitory activity” value is “inhibitory activity was found”. In addition, in the series with Colo 320 cells, the “Drug interaction with doxorubicin” value is reported as “interacted in a synergistic manner”.

On to `COC(=O)C[C@@](C)(O)CC(=O)O[C@@H]1C[C@]2(C)C3=C(CC[C@H]2C(C)(C)[C@H]1OC(C)=O)[C@]1(C)CC[C@H]([C@H](C)CCC(=O)C(C)(C)O)[C@@]1(C)[C@H](O)C3` [pholiol D], for which the “Drug interaction with doxorubicin” value with Colo 320 cells is reported as “interacted in a synergistic manner”.

Consider Pholiol F, for which the IC50 is 194 µM in the series with 5-LOX and 440 µM with COX-2.

In the case of pholiol A, in [13], the “p-glycoprotein (ABCB1) efflux pump inhibitory activity” value is “inhibitory activity was found”.
